Results: ChEMBL document CHEMBL5236550, “Small molecule selenium-containing compounds: Recent development and therapeutic applications” (Eur J Med Chem, 2021)
Converted amounts (≈) assume the structure as drawn.

What was measured:
Bacillus cereus [1] = assay: […] activity against Bacillus cereus assessed as bacterial growth inhibition incubated for 24 hrs by microtitre analysis; type: functional
Enterococcus faecalis [2] = assay: Antibacterial activity against Enterococcus faecalis assessed as bacterial growth inhibition incubated for 24 hrs by microtitre analysis; type: functional
Bacillus cereus [3] = assay: Antibacterial activity against Bacillus cereus assessed as bacterial growth inhibition incubated for 24 hrs by microtitre analysis; type: functional
[4] = tested on: Staphylococcus saprophyticus; assay: Antibacterial activity against Staphylococcus saprophyticus assessed as bacterial growth inhibition incubated for 24 hrs by microtitre analysis; type: functional
EBC-1 = assay: Anticancer activity against human EBC-1 cells assessed as cell growth inhibition incubated for 72 hrs by resazurin based spectrophotometer analysis; type: functional; conditions: EBC-1, 72 h
Staphylococcus aureus [5] = assay: Antibacterial activity against Staphylococcus aureus HEMSA assessed as bacterial growth inhibition incubated for 20 to 24 hrs by microdilution assay; type: functional; conditions: time 20-24 hrs
Staphylococcus aureus [6] = assay: Antibacterial activity against Staphylococcus aureus ATCC 2592 assessed as bacterial growth inhibition incubated for 20 to 24 hrs by microdilution assay; type: functional; conditions: time 20-24 hrs
Enterococcus faecalis [7] = assay: Antibacterial activity against Enterococcus faecalis ATCC 29212 assessed as bacterial growth inhibition incubated for 20 to 24 hrs by microdilution assay; type: functional; conditions: time 20-24 hrs
Leishmania major = assay: Antibacterial activity against Leishmania major assessed as bacterial growth inhibition incubated for 72 hrs by MTT assay; type: functional, organism-based
Leishmania amazonensis = assay: […] inhibition incubated for 72 hrs by Giemsa stain based microscopic analysis; type: functional, organism-based
Klebsiella pneumoniae [8] = assay: Antibacterial activity against Klebsiella pneumoniae KP 1963584 assessed as bacterial growth inhibition incubated for 20 hrs by […]; type: functional, organism-based; conditions: KP 1963584, 20 h
Acinetobacter [9] = assay: Antibacterial activity against Acinetobacter AC 2151300 assessed as bacterial growth inhibition incubated for 20 hrs by […]; type: functional, organism-based; conditions: AC 2151300, 20 h
Klebsiella pneumoniae [10] = assay: Antibacterial activity against Klebsiella pneumoniae KP 21513017 assessed as bacterial growth inhibition incubated for 20 hrs by […]; type: functional, organism-based; conditions: KP 21513017, 20 h
Escherichia coli [11] = assay: Antibacterial activity against Escherichia coli EC 2151612 assessed as bacterial growth inhibition incubated for 20 hrs by […]; type: functional
Acinetobacter [12] = assay: Antibacterial activity against Acinetobacter AC 1995594 assessed as bacterial growth inhibition incubated for 20 hrs by […]; type: functional, organism-based; conditions: AC 1995594, 20 h
Staphylococcus aureus [13] = assay: Antibacterial activity against Methicillin resistant Staphylococcus aureus assessed as bacterial growth inhibition incubated for 20 hrs by […]; type: functional
Pseudomonas aeruginosa [14] = assay: Antibacterial activity against Pseudomonas aeruginosa PA 58 assessed as bacterial growth inhibition incubated for 20 hrs by […]; type: functional
Pseudomonas aeruginosa [15] = assay: Antibacterial activity against Pseudomonas aeruginosa PA 54 assessed as bacterial growth inhibition incubated for 20 hrs by […]; type: functional, organism-based
Klebsiella pneumoniae [16] = assay: Antibacterial activity against Klebsiella pneumoniae NRZ-00103 assessed as bacterial growth inhibition incubated for 20 hrs by […]; type: functional, organism-based; conditions: NRZ-00103, 20 h
Pseudomonas aeruginosa [17] = assay: Antibacterial activity against Pseudomonas aeruginosa ATCC 27853 assessed as bacterial growth inhibition incubated for 20 hrs by […]; type: functional, organism-based; conditions: ATCC 27853, 20 h
Escherichia coli [18] = assay: Antibacterial activity against Escherichia coli EC 1227107 assessed as bacterial growth inhibition incubated for 20 hrs by […]; type: functional
Escherichia coli [19] = assay: Antibacterial activity against Escherichia coli EC 1995591 assessed as bacterial growth inhibition incubated for 20 hrs by […]; type: functional
Pseudomonas aeruginosa [20] = assay: Antibacterial activity against Pseudomonas aeruginosa PA T18 assessed as bacterial growth inhibition incubated for 20 hrs by […]; type: functional, organism-based; conditions: PA T18, 20 h
Escherichia coli [21] = assay: Antibacterial activity against Escherichia coli NCTC 13351 assessed as bacterial growth inhibition incubated for 20 hrs by […]; type: functional
Acinetobacter [22] = assay: Antibacterial activity against Acinetobacter AB 4184/2/5 assessed as bacterial growth inhibition incubated for 20 hrs by […]; type: functional, organism-based; conditions: AB 4184/2/5, 20 h
MIA PaCa-2 = assay: Anticancer activity against human MIA PaCa-2 cells xenografted in female Foxn1nu mouse assessed as reduction in tumor growth po,administered once daily for 28 days; type: functional; conditions: time 28 day
U-266 = assay: Anticancer activity against human U-266 cells assessed as cell growth inhibition incubated for 24 hrs by MTS assay; type: functional, cell-based; conditions: U-266, 24 h
Trypanosoma cruzi [23] = assay: Antibacterial activity against Trypanosoma cruzi Y assessed as fold change in bacterial growth incubated for 24 hrs; type: functional
[24] = Inhibition of Vibrio cholerae alpha carbonic anhydrase assessed as inhibition constant by phenol red-based hydrase assay
PC-3 = assay: Anticancer activity against human PC-3 cells assessed as cell growth inhibition incubated for 24 to 96 hrs by MTT assay; type: functional, cell-based
DU-145 = assay: Anticancer activity against human DU-145 cells assessed as cell growth inhibition incubated for 24 to 96 hrs by MTT assay; type: functional, cell-based
Carbonic anhydrase 12 = Carbonic anhydrase 12 (Homo sapiens, UniProt O43570); assay: Inhibition of human carbonic anhydrase 12 assessed as inhibition constant
Chain of Carbonic anhydrase 12 (O43570 whole entry): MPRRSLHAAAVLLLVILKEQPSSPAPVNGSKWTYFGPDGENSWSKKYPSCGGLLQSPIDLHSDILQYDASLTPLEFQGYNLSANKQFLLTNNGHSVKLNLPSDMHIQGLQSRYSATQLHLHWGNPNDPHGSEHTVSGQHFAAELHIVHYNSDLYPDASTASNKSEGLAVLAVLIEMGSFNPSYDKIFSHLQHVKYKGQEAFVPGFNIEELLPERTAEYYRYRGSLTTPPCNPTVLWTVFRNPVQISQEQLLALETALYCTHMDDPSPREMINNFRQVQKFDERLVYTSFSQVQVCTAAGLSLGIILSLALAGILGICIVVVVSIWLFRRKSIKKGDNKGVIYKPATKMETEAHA

Carbonic anhydrase 9 = Carbonic anhydrase 9 (Homo sapiens, UniProt Q16790); assay: Inhibition of human carbonic anhydrase 9 assessed as inhibition constant
Carbonic anhydrase 2 = Carbonic anhydrase 2 (Homo sapiens, UniProt P00918); assay: Inhibition of human carbonic anhydrase 2 assessed as inhibition constant
Carbonic anhydrase 1 = Carbonic anhydrase 1 (Homo sapiens, UniProt P00915); assay: Inhibition of human carbonic anhydrase 1 assessed as inhibition constant
Chain of Carbonic anhydrase 1 (P00915 whole entry): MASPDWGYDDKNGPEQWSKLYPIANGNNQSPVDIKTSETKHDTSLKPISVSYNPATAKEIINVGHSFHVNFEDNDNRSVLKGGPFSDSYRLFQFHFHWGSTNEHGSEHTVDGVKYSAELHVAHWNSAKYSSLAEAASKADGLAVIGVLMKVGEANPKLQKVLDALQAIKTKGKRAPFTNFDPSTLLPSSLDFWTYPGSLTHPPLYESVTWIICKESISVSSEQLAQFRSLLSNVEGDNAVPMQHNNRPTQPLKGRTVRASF

[25] = Inhibition of Vibrio cholerae carbonic anhydrase alpha assessed as inhibition constant by stopped-flow CO2 hydration assay
Trypanosoma cruzi [26] = assay: Antibacterial activity against Trypanosoma cruzi Dm28c assessed as inhibition of bacterial growth incubated for 72 hrs by microplate reader analysis; type: functional, organism-based
Trypanosoma cruzi [27] = assay: Antibacterial activity against Trypanosoma cruzi Y assessed as bacterial growth inhibition incubated for 24 hrs; type: functional, organism-based
Aspergillus niger = assay: […] inhibition incubated for 24 hrs by agar disc diffusion assay; type: functional
HeLa [28] = assay: Anticancer activity against human HeLa cells assessed as cell growth inhibition; type: functional, cell-based
HeLa [29] = assay: Anticancer activity against human HeLa assessed as cell growth inhibition; type: functional, cell-based
Carbonic anhydrase 7 = Carbonic anhydrase 7 (Homo sapiens, UniProt P43166); assay: Inhibition of human carbonic anhydrase 7 assessed as inhibition constant by a stopped flow CO2 hydrase assay
Chain of Carbonic anhydrase 7 (P43166 whole entry): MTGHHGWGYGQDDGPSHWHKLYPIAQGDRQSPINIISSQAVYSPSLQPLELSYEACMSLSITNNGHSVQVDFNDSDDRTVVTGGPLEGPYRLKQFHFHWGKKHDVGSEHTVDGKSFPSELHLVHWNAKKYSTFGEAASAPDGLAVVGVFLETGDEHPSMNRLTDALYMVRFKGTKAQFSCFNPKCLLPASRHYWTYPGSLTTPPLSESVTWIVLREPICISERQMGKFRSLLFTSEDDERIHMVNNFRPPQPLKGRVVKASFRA

Fusarium = assay: Antifungal activity against Fusarium assessed as fungal growth inhibition incubated by microtitre assay; type: functional
Aspergillus = assay: Antifungal activity against Aspergillus assessed as fungal growth inhibition incubated by microtitre assay; type: functional
SH-SY5Y = assay: Antitumor activity against human SH-SY5Y cells assessed as induction of apoptosis by propidium iodide staining based flow cytometry analysis; type: functional, cell-based
Candida albicans = assay: Antifungal activity against Candida albicans assessed as fungal growth inhibition incubated by microtitre assay; type: functional

Question: Which results are given for `c1csc([Se][Se]c2cccs2)c1`?
Answer: MIC (Bacillus cereus [1]): 24.2 µg/mL (≈ 74.6 µM); MIC (Enterococcus faecalis [2]): 96.8 µg/mL (≈ 298 µM); MIC (Bacillus cereus [3]): 24.2 µg/mL (≈ 74.6 µM); MIC [4]: 96.8 µg/mL (≈ 298 µM)

Question: Which IC50 (EBC-1) does the source give for `CN(C)C(SCCCCCCN(C)c1ccc(-n2[se]c3ccccc3c2=O)cc1)=[N+](C)C` here?
Answer: Its IC50 is under 20 µM.

Question: What does the source list for `CC(=O)C[Se]C(=O)c1ccc(Cl)cc1`?
Answer: MIC (Staphylococcus aureus [5]): 3.91 µM (≈ 1.08 µg/mL); MIC (Staphylococcus aureus [6]): 3.12 µM (≈ 0.86 µg/mL); MIC (Enterococcus faecalis [7]): 12.5 µM (≈ 3.44 µg/mL)

Question: Which IC50 (Leishmania major) does the source give for `[Se]=C=NCCCCCCC1Cc2cccc3cccc(c23)C1` here?
Answer: The IC50 was 30.1 nM.

Question: What about the IC50 (Leishmania amazonensis) of the same compound?
Answer: Its IC50 is 280 nM.

Question: Which results are given for `CC(C)(O)c1[se][n+]2ccccc2c1Br.[Cl-]`?
Answer: IC50 (Klebsiella pneumoniae [8]): 0.31 µg/mL; IC50 (Acinetobacter [9]): 0.31 µg/mL; IC50 (Klebsiella pneumoniae [10]): 0.31 µg/mL; MIC (Escherichia coli [11]): 0.31 µg/mL; IC50 (Acinetobacter [12]): 0.31 µg/mL; MIC (Staphylococcus aureus [13]): 0.31 µM; MIC (Pseudomonas aeruginosa [14]): 0.31 µg/mL; IC50 (Pseudomonas aeruginosa [15]; PA 54, 20 h): 0.31 µg/mL; MIC (Pseudomonas aeruginosa [15]; PA 54, time 20 hrs): 0.31 µg/mL; IC50 (Klebsiella pneumoniae [16]): 0.31 µg/mL; IC50 (Pseudomonas aeruginosa [17]): 0.31 µg/mL; MIC (Escherichia coli [18]): 0.31 µg/mL; MIC (Escherichia coli [19]): 0.31 µg/mL; IC50 (Pseudomonas aeruginosa [20]): 0.31 µg/mL; MIC (Escherichia coli [21]): 0.31 µg/mL; IC50 (Acinetobacter [22]): 0.31 µg/mL

Question: With `O=c1c2ccccc2[se]n1-c1ccccc1` [EBSELEN] as the compound, how does the “inhibition (INH)” value (MIA PaCa-2) read?
Answer: The value was 58%.

Question: What about the IC50 (U-266) of the same compound?
Answer: Its IC50 is 40 µM.

Question: For `CC1(C)OC2=C(CC1[Se]c1ccc(F)cc1)C(=O)C(=O)c1ccccc12` (configuration not stated), which “fold change (FC)” value (Trypanosoma cruzi [23]) is on record?
Answer: Its value is 2.6.

Question: With `NS(=O)(=O)c1ccc([Se]CCc2ccccc2)cc1` as the compound, how does the Ki [24] read?
Answer: Its Ki is 4.3 nM.

Question: Which results are given for `O=c1c2ccccc2[se]n1CCn1[se]c2ccccc2c1=O` [ETHASELEN]?
Answer: IC50 (PC-3): 17.8 µM; IC50 (DU-145): 15.5 µM

Question: Which Ki (Carbonic anhydrase 12) does the source give for `NS(=O)(=O)c1ccc(CCNC(=O)C[Se]c2ccccc2)cc1` here?
Answer: The Ki was 3.8 nM.

Question: And the Ki (Carbonic anhydrase 9)?
Answer: Its Ki is 4.7 nM.

Question: What about the Ki (Carbonic anhydrase 2) of the same compound?
Answer: The Ki was 4.9 nM.

Question: And the Ki (Carbonic anhydrase 1)?
Answer: The Ki was 64.2 nM.

Question: For `NS(=O)(=O)c1ccc(CCNC(=[Se])NC(=O)c2ccc3c(c2)OCO3)cc1`, which Ki [25] is on record?
Answer: Its Ki is 0.3 nM.

Question: What does the source list for `O=C(Cn1ccnc1[N+](=O)[O-])NCc1ccccc1` [BENZNIDAZOLE]?
Answer: IC50 (Trypanosoma cruzi [26]): 12.5 µM; IC50 (Trypanosoma cruzi [27]): 104 µM

Question: For `CCc1ccccc1-n1c(=[Se])n(C(c2ccccc2)c2ccccc2)c2ccccc21`, which “inhibition zone (IZ)” value (Aspergillus niger) is on record?
Answer: Its value is 27.01 mm.

Question: What does the source list for `COC(CNC(=[Se])Nc1ccc([N+](=O)[O-])cc1)c1ccc(O)c(O)c1` (configuration not stated)?
Answer: IC50 (HeLa [28]): 1800 nM; IC50 (HeLa [29]): 3.76 µM

Question: For `Cc1ccc([Se]CC(C)N)cc1` (configuration not stated), which Ki (Carbonic anhydrase 7) is on record?
Answer: The Ki was 10.4 µM.

Question: For `c1ccc([Se][Se]c2ccccc2)cc1`, which MIC (Fusarium) is on record?
Answer: Its MIC is 2 µg/mL (≈ 6.41 µM).

Question: And the MIC (Aspergillus)?
Answer: The MIC was 0.5 µg/mL (≈ 1.6 µM).

Question: What about the IC50 (SH-SY5Y) of the same compound?
Answer: The IC50 was 30 µM.

Question: And the MIC (Candida albicans)?
Answer: Its MIC is 4 µg/mL (≈ 12.8 µM).
